US6953789B2, “Thiol compounds, their production and use” (Takeda Chemical Industries, Ltd., priority 1998, dated 2005)

Each molecule was assayed against T1, recombinant human MMP-13 (Homo sapiens, UniProt P45452) (assay: Assay of MMP-13 inhibiting activity (fluorogenic peptide substrate)). Conditions: Table 1; 37° C., 2 hours.
T1 construct: made in house; host or cells: baculovirus (pBlueBac4 / Bac-N-Blue; virus made in Sf9), expressed in High-Five insect cells; culture supernatant used
Type: biochemical
Excerpt: Based on the sequence described in the literature by Freije, J. M. et al (Journal of Biological Chemistry, 269: 16766-16773, 1994) and using a PCR method known per se, a human MMP-13 cDNA was obtained.
A pBlueBac4 (Invitrogen) and a Baculovirus vector Bac-N-Blue (Invitrogen) to each of which the human MMP-13 cDNA obtained above was integrated were co-transfected to an Sf9 cell to obtain a MMP-13-expressing recombinant virus.
The recombinant virus thus obtained was infected to a High-Five cell (Invitrogen), and the culture supernatant after three days was employed as an enzyme solution. Experiment 2 Assay of MMP-13 inhibiting activity
75 μl of a sample containing the recombinant human MMP-13, 200 mM sodium chloride, 20 mM calcium chloride, 0.1% Brij 35, 1 mM 2-mercaptoethanol, 200 mM tris-HCl buffer solution (pH7.5) and a test substance at various concentrations was treated with 25 μl of 40 μM MOCAc-Pro-Leu-Gly-Leu-A2pr(DNP)-Ala-Arg-NH2 (PEPTIDE KENKYUSHO) to initiate a reaction and kept at 37° C. for 2 hours, and then 100 μl of 500 mM sodium acetate-HCl buffer solution (pH3.0) was added to terminate the reaction.
The level of liberated MOCAc-Pro-Leu-Gly was determined using a fluorophotometer (MTP-32/F2: CORONA DENKI) at the excitation wavelength of 330 nm and the fluorescent wavelength of 405 nm. The fluorescent level of the reaction in the absence of a test substance was regarded as 100%, and the concentration of each test substance required for achieving 50% inhibition was indicated as IC50.

| IC50 | Compound |
| --- | --- |
| > 10000 nM | CCSC1CC(=O)N(Cc2ccc(Oc3ccccc3)cc2)C1=O (stereo not drawn) [Example 2, 3-Ethylthio-1-(4-phenoxybenzyl)pyrrolidine-2,5-dione] |
| 100 nM | O=C1CC(SSCC2CCCO2)C(=O)N1Cc1ccc(Oc2ccccc2)cc1 (stereo not drawn) [Example 11, 3-[(Tetrahydro-2-furanyl)methyldithio]-1-(4-phenoxybenzyl)pyrrolidine-2,5-dione] |
| > 10000 nM | O=C1CC(SCc2ccccc2)C(=O)N1Cc1ccc(Oc2ccccc2)cc1 (stereo not drawn) [Example 4, 3-Benzylthio-1-(4-phenoxybenzyl)pyrrolidine-2,5-dione] |

Same assay, conditions: Table 2; 37° C., 2 hours

| IC50 | Compound |
| --- | --- |
| 50 nM | CC(=O)SC1C(=O)N(Cc2ccc(Oc3ccccc3)cc2)C(=O)C1C (stereo not drawn) [Example 7, 3-Acetylthio-4-methyl-1-(4-phenoxybenzyl)pyrrolidine-2,5-dione] |

Same assay, conditions: Table 3; 37° C., 2 hours

| IC50 | Compound |
| --- | --- |
| 200 nM | COCS[C@@H]1CC(=O)N(Cc2ccc(Oc3ccccc3)cc2)C1 [Example 98, (4R)-4-[(Methoxymethyl)sulfanyl]-1-(4-phenoxybenzyl)-2-pyrrolidinone] |
| 1.2 nM | CNC(=S)S[C@@H]1CC(=O)N(Cc2ccc(Oc3ccccc3)cc2)C1 [Example 76] |
| 3000 nM | CN(C)C(=O)S[C@@H]1CC(=O)N(Cc2ccc(Oc3ccccc3)cc2)C1 [Example 62, S-[(3R)-5-oxo-1-(4-phenoxybenzyl)pyrrolidinyl]dimethylcarbamothioate] |
| 2000 nM | O=C1C[C@@H](SC(=O)N2CCOCC2)CN1Cc1ccc(Oc2ccccc2)cc1 [Example 63, S-[(3R)-5-oxo-1-(4-phenoxybenzyl)pyrrolidinyl]4-morpholinecarbothioate] |
| 4000 nM | CC(=O)S[C@H]1CC(=O)N(Cc2ccc(Oc3ccccc3)cc2)C1 [Example 21, (S)-4-Acetylthio-1-(4-phenoxybenzyl)pyrrolidin-2-one] |
| 700 nM | CS[C@@H]1CC(=O)N(Cc2ccc(Oc3ccccc3)cc2)C1 [Example 89, (4R)-4-(Methylsulfanyl)-1-(4-phenoxybenzyl)-2-pyrrolidinone] |
| 700 nM | O=C(O)c1ccc(CS[C@@H]2CC(=O)N(Cc3ccc(Oc4ccccc4)cc3)C2)cc1 [Example 96, 4-({[(3R)-5-oxo-1-(4-phenoxybenzyl)pyrrolidinyl]sulfanyl}methyl)benzoic acid] |
| 20 nM | CN1C(=O)CC(S[C@@H]2CC(=O)N(Cc3ccc(Oc4ccccc4)cc3)C2)C1=O (stereo partly drawn) [Example 106, 1-Methyl-3-{[(3R)-5-oxo-1-(4-phenoxybenzyl)pyrrolidinyl]sulfanyl}-2,5-pyrrolidinedione] |
| 500 nM | O=C(O)c1ccccc1SS[C@@H]1CC(=O)N(Cc2ccc(Oc3ccccc3)cc2)C1 [Example 86] |
| 2 nM | O=C(SC1CC(=O)N(Cc2ccc(Oc3ccccc3)cc2)C1)C(c1ccccc1)c1ccccc1 (stereo not drawn) [Example 70, S-[5-oxo-1-(4-phenoxybenzyl)-3-pyrrolidinyl] 2,2-diphenylethanethioate] |
| 1.8 nM | O=C(O)CCNC(=O)S[C@@H]1CC(=O)N(Cc2ccc(Oc3ccccc3)cc2)C1 [Example 61, N-({[(3R)-5-oxo-1-(4-phenoxybenzyl)pyrrolidinyl]sulfanyl}carbonyl)-p-alanine] |
| 2000 nM | CC(=O)NCS[C@@H]1CC(=O)N(Cc2ccc(Oc3ccccc3)cc2)C1 [Example 100, N-({[(3R)-5-Oxo-1-(4-phenoxybenzyl)pyrrolidinyl]sulfanyl}methyl)acetamide] |
| 3.2 nM | CCC(=O)S[C@@H]1CC(=O)N(Cc2ccc(Oc3ccccc3)cc2)C1 [Example 64, S-[(3R)-5-oxo-1-(4-phenoxybenzyl)pyrrolidinyl]propanethioate] |

Same assay, conditions: Table 5; 37° C., 2 hours

| IC50 | Compound |
| --- | --- |
| 360 nM | CC(=O)SC1CC(=O)N(Cc2ccc(Oc3ccccc3)cc2)C1C(N)=O (stereo not drawn) [Example 187, trans-5-Aminocarbonyl-4-acetylthio-1-(4-phenoxybenzyl)pyrrolidin-2-one] |
| 6 nM | CC(=O)S[C@@H]1CC(=O)N(Cc2ccc(Oc3ccccc3)cc2)[C@H]1COC1CCCCO1 (relative stereo) [Example 185, trans-4-Acetylthio-5-(tetrahydro-2H-pyran-2-yl)oxymethyl-1-(4-phenoxybenzyl)pyrrolidin-2-one] |

Same assay, conditions: Table 6; 37° C., 2 hours

| IC50 | Compound |
| --- | --- |
| 30 nM | CC(=O)SC1CN(Cc2ccc(Oc3ccccc3)cc2)C(=O)C1C (stereo not drawn) [Example 194, trans-4-Acetylthio-3-methyl-1-(4-phenoxybenzyl)pyrrolidin-2-one] |

Same assay, conditions: Table 7; 37° C., 2 hours

| IC50 | Compound |
| --- | --- |
| > 10000 nM | O=C1C[C@H](SS[C@H]2CC(=O)N(Cc3ccc(Oc4ccccc4)cc3)C2)CN1Cc1ccc(Oc2ccccc2)cc1 [Example 23, (4S,4′S)-4,4′-Dithiobis[1-(4-phenoxybenzyl)pyrrolidin-2-one]] |

Same assay, conditions: Table 8; 37° C., 2 hours

| IC50 | Compound |
| --- | --- |
| > 10000 nM | CC(=O)SC1CCN(Cc2ccc(Oc3ccccc3)cc2)C1=O (stereo not drawn) [Example 27, 3-Acetylthio-1-(4-phenoxybenzyl)pyrrolidin-2-one] |

Same assay, conditions: Table 9; 37° C., 2 hours

| IC50 | Compound |
| --- | --- |
| 7 nM | CCc1ccc(Oc2ccc(CN3C[C@H](SC(C)=O)CC3=O)cc2)cc1 [Example 124, (R)-4-Acethylthio-1-[4-(4′-ethylphenoxy)benzyl]pyrrolidin-2-one] |
| 20 nM | CC(=O)SC1CC(=O)N(Cc2ccc(Oc3ccc(F)c(F)c3)cc2)C1 (stereo not drawn) [Example 121, 4-Acetylthio-1-[4-(3′,4′-difluorophenoxy)benzyl]pyrrolidin-2-one] |
| 29 nM | CC(=O)SC1CC(=O)N(Cc2ccc(Oc3ccc(C(N)=O)cc3)cc2)C1 (stereo not drawn) [Example 134, 4-Acetylthio-1-[4-(4′-aminocarbonylphenoxy)benzyl]pyrrolidin-2-one] |
| 8.9 nM | CC(=O)S[C@@H]1CC(=O)N(Cc2ccc(Oc3ccc(C)cc3)cc2)C1 [Example 123, (R)-4-Acethylthio-1-[4-(4′-methylphenoxy)benzyl]pyrrolidin-2-one] |
| > 10000 nM | CC(=O)SC1CC(=O)N(Cc2ccc(Oc3ccccc3)c(NS(C)(=O)=O)c2)C1 (stereo not drawn) [Example 152, 4-Acetylthio-1-(3-methylsulfonylamino-4-phenoxybenzyl)pyrrolidin-2-one] |
| 10 nM | CC(=O)SC1CC(=O)N(Cc2ccc(Oc3ccc(F)cc3)cc2)C1 (stereo not drawn) [Example 30, 4-Acetylthio-1-(4-(4′-fluorophenoxy)benzyl)pyrrolidin-2-one] |

Continued, molecule first:

| Compound | IC50 |
| --- | --- |
| CCOC(=O)c1ccc(Oc2ccc(CN3CC(S)CC3=O)cc2)cc1 (stereo not drawn) [Example 132, 4-Mercapto-1-[4-(4′-ethoxycarbonylphenoxy)benzyl]pyrrolidin-2-one] | 3.3 nM |
| O=C1C[C@@H](S)CN1Cc1ccc(Oc2ccc(F)cc2)cc1 [Example 118, (R)-4-Mercapto-1-[4-(4′-fluorophenoxy)benzyl]pyrrolidin-2-one] | 2 nM |
| CC(=O)SC1CC(=O)N(Cc2ccc(Oc3ccc(OC(F)(F)F)cc3)cc2)C1 (stereo not drawn) [Example 140, 4-Acetylthio-1-{4-[4′-(trifluoromethoxy)phenoxy]benzyl}pyrrolidin-2-one] | 20 nM |
| O=C1CC(S)CN1Cc1ccc(Oc2cccc(F)c2)cc1 (stereo not drawn) [Example 115, 4-Mercapto-1-[4-(3′-fluorophenoxy)benzyl]pyrrolidin-2-one] | 4 nM |
| O=C1CC(S)CN1Cc1ccc(Oc2ccccc2F)cc1 (stereo not drawn) [Example 113, 4-Mercapto-1-[4-(2′-fluorophenoxy)benzyl]pyrrolidin-2-one] | 4 nM |

Same assay, conditions: Table 10; 37° C., 2 hours

| IC50 | Compound |
| --- | --- |
| 70 nM | O=C1CC(S)CN1Cc1ccc(CCc2ccccc2)cc1 (stereo not drawn) [Example 168, 4-Mercapto-1-(4-phenethylbenzyl)pyrrolidin-2-one] |
| 20 nM | O=C(c1ccccc1)c1ccc(CN2CC(S)CC2=O)cc1 (stereo not drawn) [Example 162, 4-Mercapto-1-(4-benzoylbenzyl)pyrrolidin-2-one] |
| 510 nM | O=C1CC(S)CN1Cc1ccc(S(=O)(=O)c2ccccc2)cc1 (stereo not drawn) [Example 174, 4-Mercapto-1-(4-phenylsulfonylbenzyl)pyrrolidin-2-one] |
| 20 nM | CC(=O)SC1CC(=O)N(Cc2ccc(Sc3ccccc3)cc2)C1 (stereo not drawn) [Example 154, 4-Acetylthio-1-(4-phenylthiobenzyl)pyrrolidin-2-one] |
| 7 nM | O=C1CC(S)CN1Cc1ccc(Sc2ccccc2)cc1 (stereo not drawn) [Example 155, 4-Mercapto-1-(4-phenylthiobenzyl)pyrrolidin-2-one] |

Same assay, conditions: Table 12; 37° C., 2 hours

| IC50 | Compound |
| --- | --- |
| 60 nM | O=C1CCC(S)CN1Cc1ccc(Oc2ccccc2)cc1 (stereo not drawn) [Example 109, 1-(4-Phenoxybenzyl)-5-sulfanyl-2-piperidinone] |

Same assay, conditions: Table 13; 37° C., 2 hours

| IC50 | Compound |
| --- | --- |
| > 10000 nM | CC(=O)SC1CCCN(Cc2ccc(Oc3ccccc3)cc2)C1=O (stereo not drawn) [Example 46, 3-Acetylthio-1-(4-phenoxybenzyl)piperidin-2-one] |
| 5000 nM | O=C1C(S)CCCN1Cc1ccc(Oc2ccccc2)cc1 (stereo not drawn) [Example 48, 3-Mercapto-1-(4-phenoxybenzyl)piperidin-2-one] |
| 4000 nM | O=C(SC1CCCN(Cc2ccc(Oc3ccccc3)cc2)C1=O)c1ccccc1 (stereo not drawn) [Example 47, 3-Benzoylthio-1-(4-phenoxybenzyl)piperidin-2-one] |
